# Experiments:
# [1] = test system: DSS-induced acute enteritis mouse model; experiment: Oral efficacy in DSS-induced acute enteritis mouse model; assay type: in vivo, C57BL/6 mice; settings: acute enteritis (DSS), mouse
# Method: (§1) C57BL/6 mice aged 7-8 weeks were purchased from OrientBio (Korea), stabilized with general solid feed for 7 days, and then used in this experiment. Feed and water were freely supplied during the experiment period, and the temperature of the breeding room was maintained at 25±1° C. and the relative humidity at 50±10%. Lighting management was controlled in a 12-hour light-dark cycle by an automatic lighting controller.
# (§2) Enteritis was induced in mice by allowing them to freely ingest drinking water containing 2% DSS salt (M.W. 36,000˜50,000, MP Biomedicals, LLC, OH, USA). For the chronic enteritis model, DSS was administered using a schedule of DSS administration for the first 7 days, administration of normal drinking water for 14 days, repeated administration of DSS for 7 days from the 21st day, and administration of normal drinking water for 7 days. The drug was administered once a day, 6 days a week from the first day of DSS treatment (FIG. 2A). […] In order to measure the dose-dependent therapeutic effect of the drug in the acute enteritis model, DSS was administered for 5 days to induce enteritis, and then the drug was administered for 14 days to measure the degree of recovery and treatment of enteritis (FIG. 3A). The drug was administered orally once daily for […] at a fixed time.
# (§3) Changes in body weight of each mouse were observed during the DSS and drug administration using a digital mass meter.
# (§4) The colon of the mouse was extracted, and the length and weight from the anus to the cecum were measured.
# The degree of neutrophil infiltration in the tissue was measured by the amount of MPO, a neutrophil marker enzyme. The colon tissue with a size of 1 cm was washed with cold PBS and weighed, to which a lysis buffer (pH7.4, 200 mM NaCl, 5 mM EDTA, 10 mM tris, 10% glycerin, 1 mM PMSF, 1 μg/mL leupeptin and 28 μg/mL aprotinin) was added (500 μL of per 10 mg of tissue weight), and then homogenized using Bead Blaster® D2400 homogenizer (Benchmark Scientific, NJ, USA). […] (HK210, Hycult Biotechnology, Netherlands). The supernatant was added to a 96 well plate (100 μL/well) coated with an anti-mouse MPO antibody, and incubated for 1 hour at room temperature, followed by washing 3 times with a washing buffer. A reconstituted tracer was added to the plate (100 μL/well), which was reacted at room temperature for 1 hour, washed 3 times, and then 100 μL of streptavidin-peroxidase conjugate was added to each well of the plate. The plate was reacted at room temperature for 1 hour, washed, and 100 μl of TMB substrate solution was added to each well of the plate, followed by reaction for 30 minutes. The reaction was terminated by adding 100 μL of a stop solution to each well of the plate, and absorbance was measured at 450 nm. MPO activity means the amount of 1 μM […] at 25° C. for 1 minute. This was calculated as the amount of MPO contained in 1 mL of the colon tissue homogenate.
# (§5) Tissue staining was performed in the same manner as in the case of hematoxylin/eosin staining of the rat colon tissue, and scoring indexes of mucosal damage and recovery were applied in the same way.
# [2] = test system: TNBS-induced inflammatory bowel disease rat model; experiment: Oral efficacy in TNBS-induced inflammatory bowel disease rat model; assay type: in vivo, Sprague Dawley rats
# Method: as §1, with “Sprague Dawley rats aged” for “C57BL/6 mice aged”, “for 3” for “for 7”
# After anesthetizing rats that had been fasted for 24 hours with diethyl ether, 0.8 mL of 5% TNBS diluted with 50v/v % ethanol was slowly injected into the lumen of the colon using a 1 mL syringe connected to a polyethylene catheter, and then, the rats were left standing for 60 seconds in an inverted position in order to prevent 5% TNBS from leaking into the anus. For the control group, only vehicle [50v/v % ethanol] was injected in the same manner as in the other groups (Thapa et al., 2008).
# In order to investigate the effect of the drug, the drug was administered at a constant time every day for 5 days from the day after the TNBS treatment.
# Changes in body weight of each rat were observed from the fasting stage to the TNBS administration and drug administration process using a digital mass meter.
# The colon of the rat was extracted, and the tissue 5-6 cm away from the anus was cut into a length of 1 cm, and the weight of the tissue was measured.
# The weighed rat tissues were fixed with 4% paraformaldehyde solution, and then transferred to 30% sucrose solution. When the tissues subside, they were taken out and cut into […] thick using a cryomicrotome (Microm HM 450, Thermo Fisher Scientific, Germany) and stored in a cryopreservation solution. After washing the tissue section with KPBS, the tissue section was attached to a slide glass, dried, and then stained with hematoxylin & Eosin and observed under a microscope.
# [3] = test system: DSS-induced chronic enteritis mouse model; experiment: Oral efficacy in DSS-induced chronic enteritis mouse model; assay type: in vivo, C57BL/6 mice; settings: for Morphological observation of colon (length, macroscopic symptoms, adhesions, congestion): DSS mouse, sulfasalazine 300 mg/kg, tofacitinib 30 mg/kg, FIG. 2C; for Body weight recovery rate (%) / Intestinal weight recovery rate (%): chronic enteritis (DSS-water-DSS, total 35 days), mouse
# Method: as §1, §2, §3, §4, §5
# [4] = test system: collagen-induced rheumatoid arthritis animal model; experiment: Oral efficacy in collagen-induced rheumatoid arthritis (CIA) mouse model; assay type: in vivo, DBA/1J mice; settings: oral, up to 35 days, FIG. 5A
# Method: 12-week-old normal male mice and arthritis-induced DBA/1J mice were purchased from Central Lab. Animal Inc [To induce arthritis, DBA/1J mice were sensitized by injecting a mixed solution of Complete Freund's Adjuvant (CFA; DIFCO, Detroit, MI) and Bovine Type II collagen (1:1, v/v) intradermally at the pinna base at 8 weeks of age, and then, secondary sensitization was performed by intradermal injection at the tail head at 11 weeks of age]. The purchased arthritis mice were acclimatized to the laboratory environment for a week, and then oral administration of the drug was started.
# Visual observation of arthritic lesions was performed using the following scores based on a reference (Barnett et al., 1998).
# Therefore, the highest score for arthritic lesions was 16 per mouse.
# The hind paw thickness, which is one of the pathological indices of rheumatoid arthritis, was measured using a caliper.
# The right hind leg of each mouse was extracted, and all skin and muscles were removed, leaving only the bones and joints. The hind leg was fixed in 4% paraformaldehyde solution for 2 days, then immersed in 10% formic acid for 5 days to decalcify, and then immersed in 30% sucrose solution. When the tissue subsided, the articular tissue was cut into […] thick using a cryomicrotome (Microm HM 450, Thermo Fisher Scientific, Germany) and stored in a cryopreservation solution. Staining was performed using the stored tissue sections. After attaching the tissue sections to the slide glass, they were hydrated with 100%, 95%, 70%, and 50% ethanol solutions, and some were stained with safranin and others were stained with hematoxylin/eosin. For safranin staining, the tissue sections were first stained with 0.1% fast green solution, washed with 1% acetic acid solution, and then stained with 1% safranin solution. Thereafter, the tissue sections were dehydrated by immersing in ethanol solutions in the reverse order of hydration, and then preserved in xylene solution and mounting solution, and photographed under a microscope. Hematoxylin/eosin staining was performed in the same manner as in the colon tissue staining. The tissue sections were dehydrated, preserved in xylene solution and mounting solution, and observed under a microscope.
# The degree of microscopic tissue damage of the stained articular tissue was measured using the following scores.
# After the spleen and draining lymph nodes of the mice were extracted, the number of immune cells was counted. To confirm the distribution of Th1 and Th17 cells, the immune cells obtained from each organ were stimulated using PMA/Ionomycin and Golgi stop.
# After staining using an anti-IFN-γ antibody that can identify Th1 cells, an anti-IL-17 antibody that can identify Th17 cells, and an anti-CD8 antibody that can identify cytotoxic T cells, the proportion of inflammatory cells among the total immune cells was confirmed using flow cytometry.
# [5] = test system: adhesion of intestinal epithelial cells (HT-29) and monocytic cells (U937) induced by IL-6; experiment: Inhibition of IL-6-induced adhesion of monocytes and intestinal epithelial cells; assay type: cell-based, human; settings: Homo sapiens, 3 h; test drug 1 μM; IL-6 10 ng/mL; HT-29/U937; read-out: inhibitory activity (%)
# Method: The inhibitory activity test for intestinal epithelial cell-monocyte adhesion by IL-6 was performed using the same method as in the case of TNF-α. HT-29 cells were cultured in a 24-well plate at the density of 2×10^5 cells/cm^2, and the test drug was pretreated in a medium containing 1% FBS and 1% PS for 1 hour. Thereafter, 10 μg/mL of BCECF-AM was treated thereto and reacted at 37° C. for 30 minutes. U937 cells loaded with BCECF and IL-6 (10 ng/mL) were reacted with HT-29 cells previously treated with the test drug at 37° C. for 3 hours. Upon completion of the reaction, the medium was removed, and the culture flask was washed twice with PBS to remove non-adherent U937 cells. In the next step, the cells were lysed by treating with 0.1% Triton X-100 (0.1 M Tris) and reacted at room temperature for 30 minutes. Then, fluorescence was measured and quantified using a fluostar optima microplate reader (BMG Labtechnologies, Germany).
# [6] = 300 mg/kg, dose-dependence test (Table 7)
# [7] = 30 mg/kg, listed as tofacitinib
smiles,measurement,setting,value
"O=C(O)c1cc(/N=N/c2ccc(S(=O)(=O)Nc3ccccn3)cc2)ccc1O [Sulfasalazine, reference compound]",Body weight recovery rate (%),[1]; 300 mg/kg,65.9%
same,Intestinal weight recovery rate (%),[1]; 300 mg/kg,66.2%
same,Body weight recovery rate (%),[2]; [6],86.6%
same,Intestinal weight recovery rate (%),[2]; [6],69.6%
same,"Morphological observation of colon (visual symptoms, adhesions, congestion)","[2]; after 5 days of drug administration, sulfasalazine 300 mg/kg, X-09 0.3-10 mg/kg",significantly suppressed
same,Intestinal weight recovery rate (%),"[2]; oral 300 mg/kg, 5 days, fixed-dose test (Table 6)",69.6%
same,Body weight recovery rate (%),"[2]; oral 300 mg/kg, 5 days, fixed-dose test (Table 6), 300 mg/kg",86.6%
same,Body weight recovery rate (%),"[2]; oral 300 mg/kg, 5 days, fixed-dose test (Table 6), listed as sulfasalazine, 300 mg/kg",50.5%
same,"Morphological observation of colon (length, macroscopic symptoms, adhesions, congestion)",[3],significantly suppressed
same,Body weight recovery rate (%),[3]; 300 mg/kg,22.8%
same,Intestinal weight recovery rate (%),[3]; 300 mg/kg,66.9%
same,Intestinal weight recovery rate (%),"[3]; 300 mg/kg, listed as sulfasalazine",67.3%
"C[C@@H]1CCN(C(=O)CC#N)C[C@@H]1N(C)c1ncnc2[nH]ccc12 [Tofacitinib, reference compound]",Body weight recovery rate (%),[1]; 30 mg/kg,80.8%
same,Intestinal weight recovery rate (%),[1]; 30 mg/kg,80.9%
same,Body weight recovery rate (%),[1]; [7],80.9%
same,degree of arthritis (visual observation score),[4],significantly improved dose dependently
same,"Morphological observation of colon (length, macroscopic symptoms, adhesions, congestion)",[3],significantly suppressed
same,Body weight recovery rate (%),[3]; 30 mg/kg,29.5%
same,Intestinal weight recovery rate (%),[3]; 30 mg/kg,68.2%
same,Body weight recovery rate (%),[3]; [7],29.4%
same,Intestinal weight recovery rate (%),[3]; [7],68.8%
same,inhibition at 1 µM,[5],49.1%

# Source: patent publication US12398117B2, “Heteroarylamidopyridinol derivative and pharmaceutical composition comprising same as active ingredient for prevention or treatment of autoimmune disease” (INNOVO THERAPEUTICS INC., priority 2019, dated 2025)
